This assay has as its system calpain. Nature of the assay: inhibition of calpain in vitro (rate of hydrolysis of synthetic fluorogenic substrates). The note with it: percent decrease in rate of substrate hydrolysis. Format: biochemical. The method, then:
The assays were performed using synthetic fluorogenic substrates. Inhibition of enzyme activity was calculated on the percent decrease in the rate of substrate hydrolysis in the presence of inhibitor relative to the rate in its absence. IC50s (nM) were calculated.
For `CS(=O)(=O)n1c(C(=O)N[C@H](C=O)Cc2ccccc2)cc2ccccc21` [Example 5, (S)-N-(1-formyl-2-phenylethyl)-1-(methylsulfonyl)-2-indolecarboxamide], the IC50 (usually the concentration at which inhibition is half-maximal) was found to be 600 nM. This lies in the sub-micromolar range.
For the molecule `Cn1c(C(=O)N[C@H](C=O)Cc2ccccc2)cc2ccccc21` [Example 1, (S)-N-(1-formyl-2-phenylethyl)-1-methyl-2-indolecarboxamide], the midpoint of inhibition, the IC50, lay at 500 nM.
Molecule `COc1ccc2cc(C(=O)N[C@H](C=O)Cc3ccccc3)[nH]c2c1` [Example 7, (S)-N-(1-formyl-2-phenylethyl)-6-methoxy-2-indolecarboxamide] displayed an IC50 of 600 nM.
`O=C[C@H](Cc1ccccc1)NC(=O)c1cc2ccccc2n1Cc1ccccc1` [Example 6, (S)-N-(1-formyl-2-phenylethyl)-1-(phenylmethyl)-2-indolecarboxamide] came in with an IC50 of 500 nM.
With `COc1cc2cc(C(=O)N[C@H](C=O)Cc3ccccc3)[nH]c2cc1OCc1ccccc1` [Example 3, (S)-N-(1-formyl-2-phenylethyl)-5-methoxy-6-(phenylmethoxy)-2-indolecarboxamide], half-maximal inhibition (IC50) required 135 nM.
As for `Cc1c(C(=O)N[C@H](C=O)Cc2ccccc2)n(Cc2ccccc2)c2ccccc12` [Example 8, (S)-N-(1-formyl-2-phenylethyl)-3-methyl-1-(phenylmethyl)-2-indolecarboxamide], the figure is 30 nM; as for `O=C[C@H](Cc1ccccc1)NC(=O)c1cc2cc(Br)ccc2[nH]1` [Example 4, (S)-5-bromo-N-(1-formyl-2-phenylethyl)-2-indolecarboxamide], 230 nM.
Molecule `O=C[C@H](Cc1ccccc1)NC(=O)c1cc2ccccc2[nH]1` [Example 2, (S)-N-(1-formyl-2-phenylethyl)-2-indolecarboxamide] came in with an IC50 of 600 nM.

Source of the values: patent US6214856A, “Indolecarboxamides, pharmaceutical compositions and methods of inhibiting calpain” (SmithKline Beecham Corporation, priority 1999, dated 2001).
